# Reference: ChEMBL document CHEMBL1138537, “Small-molecule scaffolds for CYP51 inhibitors identified by high-throughput screening and defined by X-ray crystallography” (Antimicrob Agents Chemother, 2007)
# Target: Sterol 14alpha-demethylase (Mycobacterium tuberculosis, UniProt P9WPP9, F78L)
compound,measurement,value
O=C(Nc1ccncc1)C(NS(=O)(=O)c1cccc2nsnc12)c1ccccc1 (stereo unspecified),Kd,23.2 µM
